Marks after values point to notes of the source that are not given here.
Key:
Wistar rats [1] = conditions: male, rat, in vivo, 40 mg/kg/day
Description: In total, four in vivo exposure studies were conducted with pesticide exposures to pregnant rats during gestation and lactation to the selected compound (Table 2). […] For one selected dose of each compound, the internal body concentrations in dams and fetuses were determined by cesarean section at GD21. Due to the study outcomes from the third study, we conducted a fourth follow-up study on dimethomorph (Study 4).
Pup weights and AGD were measured after birth at PD1 using a stereomicroscope with a micrometer eyepiece and were determined as the distance between the genital papilla and the anus. To discriminate between an anti-androgenic effect and stunted growth, the AGD index (AGDI) was calculated by dividing AGD by the cube root of the BW (as described by [Hass et al. 2007]). The estimation of AGDI effect doses by regression modeling required a standardized AGDI scale. Therefore, we normalized the AGDI values in relation to the dynamic range spanned by the mean AGDI of the male and the female controls as (38) normalized AGDI=mean(AGDI of male controls)−AGDI(exposed animal)/mean(AGDI of male controls)−mean(AGDI of female controls).

Wistar rats [2] = conditions: rat, in vivo; cited from earlier work
NCI-H295R cells = experiment: Cell viability (MTT) in the H295R assay; assay type: cell-based, human; conditions: human, 48 h
Description: To capture effects on steroid hormone synthesis (testosterone and androstendione), we tested all 12 pesticides in the H295R assay with the human adrenocortical carcinoma cell line NCI-H295R (American Type Culture Collection no. CRL-2,128, LGC Standards), as previously described ([Hecker et al. 2011]; [Rosenmai et al. 2013]). In brief, cells were cultured in DMEM/F-12 +glutamine medium with HEPES buffer (Invitrogen) containing 1% insulin-transferrin-sodium selenite plus Premix (VWR) and 2.5% Nu-Serum (BD Bioscience) at 37°C in a 5% CO2 atmosphere. The day before exposure, cells were seeded 300,000 per well in clear 24-well plates (VWR Corning). Cells were exposed for 48 h to control (Forskolin: 1μM , 10μM (Sigma-Aldrich); and Prochloraz: 0.3μM , 3μM (VWR-Bie and Berntsen) or test compounds. The vehicle (DMSO) concentration was kept constant in all wells (0.1%). After 48 h, the exposure culture medium was removed and stored at –80°C until the levels of 10 steroid hormones (testosterone, androstenedione, aldosterone, corticosterone, cortisol, dehydroepiandrosterone, 17α-hydroxyprogesterone , progesterone, estrone, and 17β-estradiol ) were quantified using the high-performance liquid chromatography–tandem mass spectrometry method described elsewhere ([Mortensen and Pedersen 2007]). Minor modifications were made to accommodate a smaller sample size and to include more hormones. […]

[3] = PBK model simulation of fetal and maternal concentrations; design: species or system rat
androgen receptor (AR) = target: T1, androgen receptor (AR) (Homo sapiens, UniProt P10275); design: method as in Orton et al. (2011); conditions: ref Orton et al. (2011), cited from earlier work
T1 construct: host or cells: AR-EcoScreen cells
T1 sequence (P10275 1-920): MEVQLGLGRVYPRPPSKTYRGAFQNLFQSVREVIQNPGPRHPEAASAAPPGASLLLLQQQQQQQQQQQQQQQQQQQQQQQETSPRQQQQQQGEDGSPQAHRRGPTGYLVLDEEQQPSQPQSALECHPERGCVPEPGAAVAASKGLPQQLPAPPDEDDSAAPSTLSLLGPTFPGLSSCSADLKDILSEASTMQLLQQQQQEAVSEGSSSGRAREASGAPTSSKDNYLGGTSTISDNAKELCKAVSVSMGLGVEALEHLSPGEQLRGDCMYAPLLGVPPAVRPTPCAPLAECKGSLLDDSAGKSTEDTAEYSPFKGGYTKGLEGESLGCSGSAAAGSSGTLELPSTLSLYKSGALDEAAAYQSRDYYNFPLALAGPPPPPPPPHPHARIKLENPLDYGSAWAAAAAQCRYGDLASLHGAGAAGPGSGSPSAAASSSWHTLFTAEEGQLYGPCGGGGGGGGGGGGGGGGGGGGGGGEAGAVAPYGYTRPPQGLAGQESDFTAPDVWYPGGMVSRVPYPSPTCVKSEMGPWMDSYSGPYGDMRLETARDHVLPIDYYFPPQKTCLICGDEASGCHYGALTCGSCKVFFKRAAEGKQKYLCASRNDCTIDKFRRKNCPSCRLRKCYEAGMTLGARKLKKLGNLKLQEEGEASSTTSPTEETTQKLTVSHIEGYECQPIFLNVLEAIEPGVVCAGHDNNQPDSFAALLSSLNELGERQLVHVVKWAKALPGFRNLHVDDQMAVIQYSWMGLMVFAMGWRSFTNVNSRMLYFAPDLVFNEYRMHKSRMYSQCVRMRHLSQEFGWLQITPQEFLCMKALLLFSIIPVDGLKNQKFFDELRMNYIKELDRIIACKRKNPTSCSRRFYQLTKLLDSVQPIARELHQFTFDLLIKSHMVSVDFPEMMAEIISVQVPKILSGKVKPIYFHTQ

Question: For `CC12CC1(C)C(=O)N(c1cc(Cl)cc(Cl)c1)C2=O` (stereo not shown) [Procymidone, procymidone, reference compound], which “AGDI reduction (%)” value (Wistar rats [1]) is on record?
Answer: 34^d %

Question: And the “AGDI ED50” value (Wistar rats [2])?
Answer: 69.4 mg/kg BW

Question: With `N#Cc1c[nH]cc1-c1cccc2c1OC(F)(F)O2` [Fludioxonil, fludioxonil] as the compound, how does the “Cytotoxicity in H295R assay, concentrations” value (NCI-H295R cells) read?
Answer: > 12.5 µM

Question: With `COc1ccc(C(=CC(=O)N2CCOCC2)c2ccc(Cl)cc2)cc1OC` [Dimethomorph, dimethomorph] as the compound, how does the “Ratio between observation and prediction (fetal and dams' plasma concentrations)” value ([3]; GD21 measurements vs PBK simulations) read?
Answer: 0.5 to 2

Question: And the “Predicted maternal plasma level relative to analytically determined concentration” value ([3]; dams, GD21)?
Answer: approximately one-tenth

Question: What about the IC50 (androgen receptor (AR); read-out: AR antagonism (IC50), MDA-kb2 cells) of the same compound?
Answer: 900 nM

Question: And the IC20 (androgen receptor (AR); read-out: AR antagonism (IC20 µM))?
Answer: 300 nM

Source: article PMC7687371, “Quantitative in Vitro to in Vivo Extrapolation (QIVIVE) for Predicting Reduced Anogenital Distance Produced by Anti-Androgenic Pesticides in a Rodent Model for Male Reproductive Disorders” (Environmental Health Perspectives, 2020)
